The nature of data set [1]: Terg-O-Tometer stain removal test of detergent product containing the detergent solvent, rated visually. The following applies: 4.0% detergent solvent in detergent product; 5% solution 15 min, then 20 min wash at 0.144%; 120° F, 180 ppm hardness. More on the design: key: 0: complete removal; 1: Very slight remaining stain; 2: Slight remaining stain; 3: Moderate stain removal; 4: Poor stain removal; 5: Very poor stain removal; 6: Equal to original stain. Here is the method:
Four Dacron/cotton (65-35%) Khaki permanent press (Pants weight) test pieces (41/2 inches×6 inches) are first soiled by adding 3 drops of dirty crankcase motor oil on the center of the cloth and the stain allowed to set for one hour. The test cloths are then washed in the Terg-O-Tometerat 120° F, 180 ppm (2:1 Ca^+^+/Mg^+^+) hardness, 90 cycles per minute agitation, with a 5% solution of the detergent product described below (i.e., 50 g/liter) for 15 minutes and then hand squeezed to remove excess water. Finally the cloths are given a 20 minute wash at the standard use level (e.g. 0.144%) under the same conditions followed by a 1 minute rinse. After drying the washed cloths, the degree of stain removal is rated visually according to the scale below:
1 = Very slight remaining stain
2 = Slight remaining stain
3 = Moderate stain removal
5 = Very poor stain removal
6 = Equal to original stain
Ten such formulations utilizing the following "Detergent Solvents" were prepared and evaluated as described above: […]

Data set [2] can be described thus: Cold resistance of plasticized polyvinyl chloride film. It is filed as physicochemical. The following applies: PVC film 1.3 mm, 65 parts plasticizer per 100 parts S-PVC resin. The protocol: Tri(2-ethylhexyl) carboxymethyloxysuccinate was incorporated as a plasticizer in the preparation of polyvinyl chloride film as follows
Using a mixing roller at 170° (7 min.) followed by post-pressing the film at 170° C under contact pressure for 2 minutes, a good plasticized film (1.3 mm) of polyvinyl chloride was obtained. Cold resistance was -39° C compared to -36° C for a control PVC film made using di-2-ethylhexyl phthalate (DOP) as the plasticizer.

The conditions of data set [3]: parent compound from which the esters are derived; cited from earlier work.
The conditions of data set [4]: parent compound from which the esters are derived; cited from earlier work. This is another data set of the same source.
The conditions of data set [5]: under both aerobic and anaerobic conditions; cited from earlier work.

Structures are written as SMILES.

On to `CCCCCCCCOC(=O)COC(CC(=O)OCCCCCCCC)C(=O)OCCCCCCCC` (centres unmarked) [H, trioctyl carboxymethyloxysuccinate], for which, in data set [1], the “Visual Grading Code (degree of stain removal)” value (“Visual Grading Code” for short) was determined as 2.

Regarding `COC(=O)COC(CC(=O)OC)C(=O)OC` (centres unmarked) [B, trimethyl carboxymethyloxysuccinate], the “Visual Grading Code” value in data set [1] turned out to be 2.

In the case of `CCOC(=O)COC(CC(=O)OCC)C(=O)OCC` (centres unmarked) [C, triethyl carboxymethyloxysuccinate], in data set [1], the “Visual Grading Code” value was found to be 1.

As to `CCCCC(CC)COC(=O)c1ccccc1C(=O)OCC(CC)CCCC` (centres unmarked) [di-2-ethylhexyl phthalate, reference compound], in data set [2], the Cold resistance is -36 °C.

Regarding `O=C(O)COC(CC(=O)O)C(=O)O` (centres unmarked) [carboxymethyloxysuccinic acid], the teratogenicity result in data set [3] is given as “non-teratogenic”. Besides, the toxicity result in data set [4] is “non-toxic”. Further, the biodegradability result in data set [5] is “completely biodegradable”.

Regarding `CCCCOC(=O)c1ccccc1C(=O)OCCCC` [A, dibutyl phthalate, reference compound], in data set [1], the “Visual Grading Code” value is 2.

`CCCCC(CC)COC(=O)COC(CC(=O)OCC(CC)CCCC)C(=O)OCC(CC)CCCC` (centres unmarked) [G, tri(2-ethylhexyl) carboxymethyloxysuccinate] showed a Cold resistance in data set [2] of -39 °C. Also, the “Visual Grading Code” value in data set [1] came to 2.

Turning to `CCCCCCOC(=O)COC(CC(=O)OCCCCCC)C(=O)OCCCCCC` (centres unmarked) [F, trihexyl carboxymethyloxysuccinate], the “Visual Grading Code” value in data set [1] is reported as 1.

Regarding `CCCOC(=O)COC(CC(=O)OCCC)C(=O)OCCC` (centres unmarked) [D, tripropyl carboxymethyloxysuccinate], in data set [1], the “Visual Grading Code” value stood at 1.

For the compound `CCCCCCCCCCCCOC(=O)COC(CC(=O)OCCCCCCCCCCCC)C(=O)OCCCCCCCCCCCC` (centres unmarked) [J, tridodecyl carboxymethyloxysuccinate], the “Visual Grading Code” value in data set [1] is reported as 2.

Regarding `CCCCOC(=O)COC(CC(=O)OCCCC)C(=O)OCCCC` (centres unmarked) [E, tributyl carboxymethyloxysuccinate], in data set [1], the “Visual Grading Code” value was 2.
